Here are results for 4 compounds from paper PMC11350675, “Identifying Cell-Penetrating Peptides for Effectively Delivering Antimicrobial Molecules into Streptococcus suis” (Antibiotics, 2024).

The subject of data set [1] is S. suis serotype 2 strain SC070731. It is filed as cell-based, Streptococcus suis. On the procedure: The broth microdilution method was employed to determine the MIC values, following a previous study and a recently published protocol with a few modifications. In brief, an overnight S. suis serotype 2 strain SC070731 culture was diluted 100-fold in fresh THB and grown to an OD600nm of 0.6. Subsequently, the bacterial suspension was further diluted 2000-fold in fresh Mueller–Hinton broth (MHB) to a final concentration of approximately 1 × 10^5 CFU/mL. Then, 180 µL of the bacterial solution was transferred into a 96-well plate. Immediately, 20 µL of a 10× peptides, PNAs, or CPP-PNA conjugates working solution was added. As a negative control, an equivalent volume of water was added instead. The plate was then incubated at 37 °C with 5% CO2 for 18 h, and the growth was periodically monitored by measuring the OD595nm every hour using a BioTek ELx800 plate reader. The MIC value was determined as the lowest concentration inhibiting visible growth in the wells (OD595nm < 0.1).

The subject of data set [2] is S. suis serotype 2 strain SC070731 cells. Kind of data set: Cellular uptake of FITC-labeled CPPs by flow cytometry. It is filed as cell-based, Streptococcus suis. The note with it: 10 µM FITC-labeled CPP or FITC molecule, 1 h, 37 °C, PBS; flow cytometry, 50,000 events, 488 nm laser. On the procedure: S. suis serotype 2 strain SC070731 was streaked onto THA plates and incubated at 37 °C with 5% CO2 for 12 h. A bacterial colony was picked and inoculated overnight in 2 mL of THB at 37 °C. The overnight culture was then diluted 100-fold in fresh THB and grown to an OD600nm of 0.6 (approximately 3 × 10^8 CFU/mL). The obtained culture was washed twice with PBS and resuspended in PBS. Further, 900 µL of the bacterial solution was transferred into a 2 mL tube. Immediately, 100 µL of a 10× FITC-labeled CPPs working solution was added to a final concentration of 10 µM. Controls were prepared using an equivalent volume of water or a 10× FITC molecule solution. The reaction tubes were incubated for one hour at 37 °C and 10 rpm rotation in the dark. […] The fluorescence emitted by the 640 nm laser was used to analyze the cell membrane stained with Alexa Fluor 633-WGA. In contrast, the fluorescence emitted by the 488 nm laser was used to analyze the distribution of FITC-labeled CPPs in bacterial cells. […]
As mentioned, the bacterial cells were treated with FITC-labeled CPPs and fixed with 4% paraformaldehyde. […] Bacterial cells in suspension were analyzed at a 200–300 events/s flow rate, and 50,000 events were recorded for analysis. […] The mean fluorescence intensity of FITC was analyzed using FlowJo^TM v10 software (BD Biosciences). […]

[3] abbreviates: S. suis serotype 2 strain SC070731, broth microdilution in MHB, approx. 1 × 10^5 CFU/mL, 37 °C, 5% CO2, 18 h, lowest concentration inhibiting visible growth (OD595nm < 0.1).

Values after ≈ are worked out from the molar mass of the structure shown. Like-named read-outs stand apart in the source and are kept apart here. Non-standard residues stand in square brackets, D forms with d. Residues, ends and D or L forms follow the SMILES beside them. Ahx = NCCCCCC(=O)O; βAla = NCCC(=O)O

`N=C(N)NCCC[C@H](NC(=O)CCCCCNC(=O)[C@H](CCCNC(=N)N)NC(=O)[C@H](CCCNC(=N)N)NC(=O)CCCCCNC(=O)[C@H](CCCNC(=N)N)NC(=O)[C@H](CCCNC(=N)N)NC(=O)CCCCCNC(=O)[C@H](CCCNC(=N)N)NC(=O)[C@H](CCCNC(=N)N)NC(=O)CCCCCNC(=O)[C@@H](N)CCCNC(=N)N)C(=O)NCCCCCC(=O)NCCC(N)=O` [(RXR)4XB] (H-R[Ahx]RR[Ahx]RR[Ahx]RR[Ahx]R[Ahx][βAla]-NH2) showed an MIC in data set [1] (18 h) of 4 µM (≈ 7.61 µg/mL). Consider `O=C1OC2(c3ccc(O)cc3Oc3cc(O)ccc32)c2ccc(N=C=S)cc21` [FITC molecule], for which the “cells clustered in quadrant 4 (FITC-positive), share of total cells” value in data set [2] is given as 64.80%.

On to `N=C(N)NCCC[C@H](NC(=O)CN)C(=O)N[C@@H](CCCCN)C(=O)N[C@@H](CCCCN)C(=O)N[C@@H](CCCNC(=N)N)C(=O)N[C@@H](CCCNC(=N)N)C(=O)N[C@@H](CCC(N)=O)C(=O)N[C@@H](CCCNC(=N)N)C(=O)N[C@@H](CCCNC(=N)N)C(=O)N[C@@H](CCCNC(=N)N)C(=O)N[C@@H](Cc1ccc(O)cc1)C(=O)N[C@@H](CCCCN)C(N)=O` [HIV-1 TAT], for which the MIC in data set [1] (setting [3]) was greater than 128 µM. Still for that read-out and setting: in the case of “Free PNA: gyrA-specific antisense peptide nucleic acid, ttgcattatatg, without carrier peptide (TTGCATTATATG; all peptide nucleic acid (PNA); Unconjugated PNA, no carrier peptide)” it was greater than 32 µM.
